Measured values published in patent publication US20090085344A1, “Organic fluorescent sulfonyl ureido benzoxazinone pigments” (Honeywell International Inc., priority 2007, published 2009).

How the values were obtained:
Type in all cases: physicochemical
[1] = Solubility of the powder in 2-butanone; conditions: room temperature
Procedure: (§1) In accordance with the present disclosure, 1-(para-toluenesulfonyl)-3-[2-(4-oxo-4H-benzo[d][1,3]oxazine-2-yl)-phenyl]urea, also named 1-(4-methylphenylsulfonyl)-3-[2-(4-oxo-4H-benzo[d][1,3]oxazine-2-yl)-phenyl]urea, where R^1, R^2, R^3 and R^4 are each hydrogen, and R^5 is 4-methylphenyl, was prepared according to the following procedure: A 250 mL three-neck bottle was charged at room temperature with anthranoylanthranilic acid (0.05 mol) and 100 mL methyl ethyl ketone. Para-toluenesulfonyl isocyanate (0.05 mol) was then added, with stirring, and the reaction mixture was heated under reflux at about 80° C. for about 4 hours. Thereafter, the resulting suspension was cooled to about 40° C., and acetic anhydride (40 mL) was added. The resulting mixture was heated for an additional 3 hours. After cooling to about 10° C., the precipitate was filtered under suction, washed with acetone, and dried at about 50° C. under atmospheric pressure to produce a white powder in about 70% -85% yield. The Emission (fluorescence) maximum of the resultant powder was 526 nm. The excitation maximum is/was 380 nm. […] Intensity of fluorescence of the powder was 350 cd/m^2, as measured with a Minolta luminance meter under 365 nm excitation. Solubility of the powder in 2-butanone was less than 0.5% at room temperature.

[2] = Intensity of fluorescence of the powder, Minolta luminance meter under 365 nm excitation
Procedure: as §1

[3] = Fluorescence emission and excitation maxima of the powder
Description: The benzoxazinone compounds of the present disclosure are colorless, and fluoresce in the visible region. More specifically, the benzoxazinone compounds of the present disclosure produce a bright emission in a region from about 520 nm to about 540 nm wavelength when irradiated by UV light energy at about 366 nm wavelength. The benzoxazinone compounds have an excitation maximum at about 340 nm to about 420 nm wavelength.
as §1

[4] = Lightfastness: relative intensities at 0 hours and after 104 hours (FIGS. 1 and 2); conditions: compared with Lumilux CD 397 and Lumilux CD 302
Procedure: FIG. 1 is a comparative bar graph of the lightfastness of 1-(para-toluenesulfonyl)-3-[2-(4-oxo-4H-benzo[d]-[1,3]oxazine-2-yl)-phenyl]urea (compound 7), as compared with aliphatic ureidobenzoxazinone (UBO)(compound 11), Nitril-AUBO (compound 33), Lumiluxg CD 397, and Lumilux® CD 302, by measuring relative intensities at 0 hours and after 104 hours.
FIG. 2 is a comparative bar graph of the percent (%) loss of intensity of lightfastness of 1-(para-toluenesulfonyl)-3-[2-(4-oxo-4H-benzo[d]-[1,3]oxazine-2-yl)-phenyl]urea (compound 7) relative to compound 11, compound 33, Lumilux® CD 397, and Lumilux® CD 302.
Referring now to the Figures, FIG. 1 illustrates a comparative bar graph of the intensity of lightfastness (in cd/m^2) of 1-(para-toluenesulfonyl)-3-[2-(4-oxo-4H-benzo[d]-[1,3]oxazine-2-yl)-phenyl]urea (compound 7), which is shown relative to various ureido benzoxazinone compounds (UBO), such as aliphatic UBO (compound 11), Nitril-AUBO (compound 33), and Lumilux® CD 397 and Lumilux® CD 302.
FIG. 2 is a comparative bar graph illustrating of the percent loss of intensity of lightfastness of 1-(para-toluenesulfonyl)-3-[2-(4-oxo-4H-benzo[d]-[1,3]oxazine-2-yl)-phenyl]urea (compound 7) compared with ureido benzoxazinone compounds (UBO) such as compound 11, compound 33, Lumilux® CD 397 and Lumiluxg CD 302.

Solubility of the powder in 2-butanone [1]	Intensity of fluorescence of the powder [2]	Emission (fluorescence) maximum of the resultant powder [3]	excitation maximum [3]	loss of lightfastness intensity ([4]; after 104 hours)	SMILES	degree (intensity) of lightfastness ([4]; 0 hours and after 104 hours)
less than 0.5%	330 cd/m^2	539 nm	380 nm	–	O=C(Nc1ccccc1-c1nc2ccccc2c(=O)o1)NS(=O)(=O)c1ccc(Cl)cc1 [Example 4, 1-(4-chlorophenylsulfonyl)-3-[2-(4-oxo-4H-benzo[d]-[1,3]oxazine-2-yl)-phenyl]urea]	–
less than 0.5%	350 cd/m^2	526 nm	380 nm	lower loss of lightfastness intensity	Cc1ccc(S(=O)(=O)NC(=O)Nc2ccccc2-c2nc3ccccc3c(=O)o2)cc1 [Example 1, 1-(para-toluenesulfonyl)-3-[2-(4-oxo-4H-benzo[d]-[1,3]oxazine-2-yl)-phenyl]urea]	greater degree (intensity) of lightfastness
less than 0.5%	320 cd/m^2	528 nm	380 nm	–	O=C(Nc1ccccc1-c1nc2ccccc2c(=O)o1)NS(=O)(=O)c1ccccc1 [Example 2, 1-(phenylsulfonyl)-3-[2-(4-oxo-4H-benzo[d]-[1,3]oxazine-2-yl)-phenyl]urea]	–
less than 1%	260 cd/M^2	530 nm	380 nm	–	Cc1ccccc1S(=O)(=O)NC(=O)Nc1ccccc1-c1nc2ccccc2c(=O)o1 [Example 3, 1-(2-methylphenylsulfonyl)-3-[2-(4-oxo-4H-benzo[d]-[1,3]oxazine-2-yl)-phenyl]urea]	–
